Source: US10947237B2, “Antimicrobial compounds and methods of making and using the same” (BIOVERSYS AG, priority 2015, dated 2021)

Tests used:
[1] = system: Staphylococcus aureus (S. aureus) 11540 strain; test: standard microdilution assay, minimum inhibitory concentration (MIC); assay type: cell-based; settings: Table 2, 11540 strain
Experimental: (§1) The in vitro activity of the compounds of the present disclosure can be determined. Antimicrobial testing is typically performed to determine the minimum inhibitory concentration (MIC). Minimum inhibitory concentrations (MICs) are determined by the microdilution method in a final volume of 100 μl according to protocols outlined by The Clinical and Laboratory Standards Institute (CLSI). Performance standards for reference strains are assessed within the same experimental design to maintain quality control. See, for example, Clinical Laboratory Standards Institute: Methods for dilution antimicrobial susceptibility tests for bacteria that grow aerobically M7-A8. Approved Standard-Eighth Edition. Wayne, Pa.: CLSI; December 2008; and Clinical Laboratory Standards Institute: Performance Standards for Antimicrobial Susceptibility Testing M100-S20; Approved Standard-Twentieth Edition. Wayne, Pa.: CLSI; June 2010. The compounds of the present disclosure were tested for antimicrobial activity. The Compounds 1-149 were run against Eschericia coli (E. Coli) strain ATCC25922 and against Staphylococcus aureus (S. aureus) 11540 strain using a standard microdilution assay to determine minimum inhibitory concentrations (MICs). […] It will be recognized by one skilled in the art that the compounds can be assessed against other bacterial organisms and that the presentation of data for activity against Eschericia coli and Staphylococcus aureus are illustrative and in no way is intended to limit the scope of the present disclosure. The compounds of the present disclosure can be assayed against a range of other microorganisms depending upon the performance activity desired to be gathered. Furthermore, the “+” and “−” representation and the selection of a cutoff value of 16 micrograms/mL is also illustrative and in no way is intended to limit the scope of the present disclosure.

[2] = system: Eschericia coli (E. Coli) strain ATCC25922; test: as above; assay type: cell-based; settings: Escherichia coli; Table 2; strain ATCC25922
Experimental: as §1

SMILES | MIC [1] [µg/mL] | MIC [2] [µg/mL]
CC(C)C(=N)NCC[C@@H]1CCC[C@@H](c2ccc(-n3cc4cc(-c5cc(CCC[C@H](C)N)cc(Cl)c5F)[nH]c4nc3=O)cc2)N1 [Compound 82] | ≤ 16 | ≤ 16
C[C@H](N)CCCc1cc(Cl)c(F)c(-c2cc3cn(-c4ccc([C@@H]5CCC[C@@H](CCNC(=N)C6CC6)N5)cc4)c(=O)nc3[nH]2)c1 [Compound 83] | ≤ 16 | ≤ 16
C[C@H](N)CCCc1cc(Cl)c(F)c(-c2cc3cn(-c4ccc([C@@H]5CCC[C@@H](CCNC(=N)C6CCC6)N5)cc4)c(=O)nc3[nH]2)c1 [Compound 84] | ≤ 16 | ≤ 16
C[C@H](N)CCCc1cc(Cl)c(F)c(-c2cc3cn(-c4ccc([C@@H]5CCC[C@@H](CCNC(=N)CF)N5)cc4)c(=O)nc3[nH]2)c1 [Compound 85] | ≤ 16 | ≤ 16
C[C@H](N)CCCc1cc(Cl)c(F)c(-c2cc3cn(-c4ccc([C@@H]5CCC[C@@H](CCNC(=N)CCl)N5)cc4)c(=O)nc3[nH]2)c1 [Compound 86] | ≤ 16 | ≤ 16
C[C@H](N)CCCc1cc(Cl)c(F)c(-c2cc3cn(-c4ccc([C@H]5CC(CCNC(=N)N)CC(CO)O5)cc4)c(=O)nc3[nH]2)c1 (some centres unmarked) [Compound 87] | ≤ 16 | ≤ 16
C[C@H](N)CCCc1cc(Cl)c(F)c(-c2cc3cn(-c4ccc([C@@H]5CC(CCNC(=N)N)CC(CO)O5)cc4)c(=O)nc3[nH]2)c1 (some centres unmarked) [Compound 88] | ≤ 16 | ≤ 16
C[C@H](N)CCCc1cc(Cl)c(F)c(-c2cc3cn(-c4ccc([C@@H]5C/C(=C/CNC(=N)N)CC(CO)O5)cc4)c(=O)nc3[nH]2)c1 (some centres unmarked) [Compound 89] | ≤ 16 | ≤ 16
C[C@H](N)CCCc1cc(Cl)c(F)c(-c2cc3cn(-c4ccc(CN[C@H](CCNC(=N)N)CNc5cc(F)ccn5)cc4)c(=O)nc3[nH]2)c1 [Compound 91] | ≤ 16 | ≤ 16
C[C@H](N)CCCc1cc(Cl)c(F)c(-c2cc3cn(-c4ccc(N5CCOC(CCNC(=N)N)C5)cc4)c(=O)nc3[nH]2)c1 (some centres unmarked) [Compound 92] | ≤ 16 | ≤ 16
C=C[C@@H](CCNC(=N)N)OCc1ccc(-n2cc3cc(CCNC4CCNCC4)[nH]c3nc2=O)cc1 [Compound 93] | > 16 | > 16
O=c1nc2[nH]c(C3CCNC3)cc2cn1-c1ccc([C@@H]2CCC[C@@H](CCNc3ncc[nH]3)N2)cc1 (some centres unmarked) [Compound 94] | > 16 | ≤ 16
O=c1nc2[nH]c(CCNC3CCNCC3)cc2cn1-c1ccc([C@@H]2CCC[C@@H](CCNc3ncc[nH]3)N2)cc1 [Compound 95] | ≤ 16 | ≤ 16
C[C@H](N)CCCc1cc(Cl)c(F)c(-c2cc3cn(-c4ccc([C@H]5C[C@H](CCNC(=N)N)C[C@H](CN)O5)cc4)c(=O)nc3[nH]2)c1 [Compound 96] | ≤ 16 | ≤ 16
CC(=N)NCC[C@@H]1C[C@H](CN)O[C@@H](c2ccc(-n3cc4cc(-c5cc(CCC[C@H](C)N)cc(Cl)c5F)[nH]c4nc3=O)cc2)C1 [Compound 97] | ≤ 16 | ≤ 16
N=C(N)NCC[C@@H]1C[C@H](CN)O[C@@H](c2ccc(-n3cc4cc(C5CCNC5)[nH]c4nc3=O)cc2)C1 (some centres unmarked) [Compound 98] | > 16 | > 16
N=C(N)NCC[C@@H]1C[C@H](CN)O[C@@H](c2ccc(-n3cc4cc(CCNC5CCNCC5)[nH]c4nc3=O)cc2)C1 [Compound 99] | > 16 | ≤ 16
N=C(N)NCC[C@@H]1CCC[C@@H](c2ccc(-n3cc4cc(C5CCNC5)[nH]c4nc3=O)cc2)N1 (some centres unmarked) [Compound 100] | ≤ 16 | ≤ 16
N=C(N)NCC[C@@H]1CCC[C@@H](c2ccc(-n3cc4cc(CCNC5CCNCC5)[nH]c4nc3=O)cc2)N1 [Compound 101] | ≤ 16 | ≤ 16
O=c1nc2[nH]c(CCNC3CCNCC3)cc2cn1-c1ccc([C@@H]2CCC[C@@H](CCc3ncc[nH]3)N2)cc1 [Compound 102] | ≤ 16 | ≤ 16
N=C(N)NCC[C@H](CNc1ccccn1)OCc1ccc(-n2cc3cc(C4CCNC4)[nH]c3nc2=O)cc1 (some centres unmarked) [Compound 103] | > 16 | > 16
N=C(N)NCC[C@H](CNc1ncc[nH]1)OCc1ccc(-n2cc3cc(CCNC4CCNCC4)[nH]c3nc2=O)cc1 [Compound 104] | ≤ 16 | ≤ 16
N=C(N)NCC[C@H](CNc1ccccn1)OCc1ccc(-n2cc3cc(CCNC4CCNCC4)[nH]c3nc2=O)cc1 [Compound 105] | > 16 | > 16
C[C@H](N)CCCc1cc(Cl)c(F)c(-c2cc3cn(-c4ccc(CN[C@H](CCNC(=N)N)CNc5ncccc5F)cc4)c(=O)nc3[nH]2)c1 [Compound 106] | ≤ 16 | ≤ 16
C[C@H](N)CCCc1cc(-c2[nH]c3nc(=O)n(-c4ccc([C@H](C)NCCCNC(=N)N)cc4)cc3c2[N+](=O)[O-])c(F)c(Cl)c1[N+](=O)[O-] [Compound 110] | > 16 | > 16
C[C@H](N)CCCc1cc(Cl)c(F)c(-c2[nH]c3nc(=O)n(-c4ccc([C@H](C)NCCCNC(=N)N)cc4)cc3c2[N+](=O)[O-])c1[N+](=O)[O-] [Compound 111] | ≤ 16 | > 16

Further lines, results first:

MIC [1] [µg/mL] | MIC [2] [µg/mL] | SMILES
≤ 16 | ≤ 16 | C[C@H](N)CCCc1cc(Cl)c(F)c(-c2cc3cn(-c4ccc(CN[C@@H](CF)CCNC(=N)N)cc4)c(=O)nc3[nH]2)c1 [Compound 107]
≤ 16 | ≤ 16 | C[C@H](N)CCCc1cc(Cl)c(F)c(-c2cc3cn(-c4ccc([C@@H]5C[C@H](Nc6nccs6)C[C@@H](CCNC(=N)N)O5)cc4)c(=O)nc3[nH]2)c1 [Compound 108]
≤ 16 | > 16 | C[C@H](N)CCCc1cc(Cl)c(F)c(-c2[nH]c3nc(=O)n(-c4ccc(CN[C@H](C)CCNC(=N)N)cc4)cc3c2[N+](=O)[O-])c1 [Compound 109]
> 16 | > 16 | C[C@@H](CCNC(=N)N)OCc1ccc(-n2cc3cc(CCNC4CCNCC4)[nH]c3nc2=O)cc1 [Compound 112]
> 16 | ≤ 16 | N=C(N)NCC[C@H](CNc1ncc[nH]1)OCc1ccc(-n2cc3cc(C4CCNC4)[nH]c3nc2=O)cc1 (some centres unmarked) [Compound 113]
≤ 16 | ≤ 16 | N=C(N)NCC[C@H](CNC(=N)N)OCc1ccc(-n2cc3cc(CCNC4CCNCC4)[nH]c3nc2=O)cc1 [Compound 114]
≤ 16 | ≤ 16 | CC(=N)NCC[C@@H]1CCC[C@@H](c2ccc(-n3cc4cc(C5CCNC5)[nH]c4nc3=O)cc2)N1 (some centres unmarked) [Compound 115]
> 16 | > 16 | CC1=NCC[C@@H]2CCC[C@@H](c3ccc(-n4cc5cc(C6CCNC6)[nH]c5nc4=O)cc3)N12 (some centres unmarked) [Compound 116]
≤ 16 | ≤ 16 | CC(=N)NCC[C@@H]1CCC[C@@H](c2ccc(-n3cc4cc(CCNC5CCNCC5)[nH]c4nc3=O)cc2)N1 [Compound 117]
> 16 | > 16 | CC1=NCC[C@@H]2CCC[C@@H](c3ccc(-n4cc5cc(CCNC6CCNCC6)[nH]c5nc4=O)cc3)N12 [Compound 118]
≤ 16 | ≤ 16 | C[C@H](N)CCCc1cc(Cl)c(F)c(-c2cc3cn(-c4ccc([C@H]5CC(N)C[C@H](CCNC(=N)N)O5)cc4)c(=O)nc3[nH]2)c1 (some centres unmarked) [Compound 119]
≤ 16 | ≤ 16 | CC(=N)NCC[C@H]1CC(N)C[C@H](c2ccc(-n3cc4cc(-c5cc(CCC[C@H](C)N)cc(Cl)c5F)[nH]c4nc3=O)cc2)O1 (some centres unmarked) [Compound 120]
> 16 | ≤ 16 | N=C(N)NCC[C@H]1CC(N)C[C@H](c2ccc(-n3cc4cc(C5CCNC5)[nH]c4nc3=O)cc2)O1 (some centres unmarked) [Compound 121]
≤ 16 | ≤ 16 | N=C(N)NCC[C@H]1CC(N)C[C@H](c2ccc(-n3cc4cc(CCNC5CCNCC5)[nH]c4nc3=O)cc2)O1 (some centres unmarked) [Compound 122]
≤ 16 | > 16 | C[C@H](N)CCCc1cc(Cl)c(F)c(-c2cc3cn(-c4ccc([C@@H]5C[C@@H](Nc6nccs6)C[C@@H](CCNC(=N)N)O5)cc4)c(=O)nc3[nH]2)c1 [Compound 123]
> 16 | > 16 | N=C(N)NCC[C@@H]1C[C@H](Nc2nccs2)C[C@@H](c2ccc(-n3cc4cc(C5CCNC5)[nH]c4nc3=O)cc2)O1 (some centres unmarked) [Compound 124]
> 16 | > 16 | N=C(N)NCC[C@@H]1C[C@@H](Nc2nccs2)C[C@@H](c2ccc(-n3cc4cc(C5CCNC5)[nH]c4nc3=O)cc2)O1 (some centres unmarked) [Compound 125]
> 16 | > 16 | N=C(N)NCC[C@H](CF)NCc1ccc(-n2cc3cc(C4CCNC4)[nH]c3nc2=O)cc1 (some centres unmarked) [Compound 126]
≤ 16 | ≤ 16 | C[C@H](N)CCCc1cc(Cl)c(F)c(-c2cc3cn(-c4ccc([C@H]5CC(N)C[C@H](CCN)O5)cc4)c(=O)nc3[nH]2)c1 (some centres unmarked) [Compound 127]
≤ 16 | ≤ 16 | C[C@H](N)CCCc1cc(Cl)c(F)c(-c2cc3cn(-c4ccc([C@H]5CC(NC(=N)N)C[C@H](CCNC(=N)N)O5)cc4)c(=O)nc3[nH]2)c1 (some centres unmarked) [Compound 128]
